The values below come from patent US20240400591A1 (Jacobio Pharmaceuticals Co., Ltd., priority 2021, published 2024).

Like-named read-outs stand apart in the source and are kept apart here.

Assay [1] has as its target T1, His-p53 Y220C (94-294) protein (Homo sapiens, UniProt P04637, Y220C).
T1 construct: His-p53 Y220C (94-294) protein
The assay is described as follows: In vitro DNA binding assay (HTRF). It is filed as biochemical. To be noted: % activation normalized to 2 μM Ref-1a high control.

The subject of another assay is NUGC3 (P53 Y220C). The assay is described as follows: Cell viability assay (CellTiter-Glo, 6 days), NUGC3. Format: cell-based. The conditions noted are these: cell viability, 6 days, CellTiter-Glo, read-out: NUGC3 (P53 Y220C) IC50. The method, then:
(§1) Cells were collected and counted. A desired number of cells was seeded into 96-well microplate and cultured in 37° C. cell incubator overnight. Compounds dissolved in cell culture medium were added into cell plate and cultured for 6 days. After balancing CellTiter-Glo reagent and cells at room temperature for 30 min, equal volume of CellTiter-Glo reagents was added to assay plate and shaken for 2 min for cell lysis. The cells were balanced at room temperature for 10 minutes and Luminescence signal was read using Envision. The percent of cell viability for compounds treated wells were normalized between High control and low control. Wells containing cell culture medium and same percentage DMSO sewved as Low control. Wells containing cells and same percentage DMSO sewved as High control. Cell viability (%)=(Luminescence readoutCompound treated−Luminescence readoutLow control)/(Luminescence readoutHigh control−Luminescence readoutLow control)*100%. Then the data were analyzed either by fitting a 4-parameter logistic model or by Excel to calculate IC50 values. And the IC50 was the concentration at 50% Cell viability on the curve.

For another assay, the system named is NUGC4 (P53 WT). Put plainly: Cell viability assay (CellTiter-Glo, 6 days), NUGC4. It is filed as cell-based. The conditions noted are these: cell viability, 6 days, CellTiter-Glo, read-out: NUGC4 (P53 WT) IC50. The procedure: as §1
In general terms: In ATP-based viability assays light output follows the ATP content of the culture.

The test system of assay [2] is NUGC-3_P53_Luc single clonal cell line (p53 Y220C). Put plainly: Reporter gene assay (p53 RE luciferase). Format: cell-based. The conditions noted are these: luciferase reporter, 6 hours, normalized to Ref-1a (10 μM) high control, read-out: p53(Y220C)_NUGC-3 EC50. The method, then: NUGC-3_P53_Luc single clonal cell line was established using pGL4.38[luc2P/p53 RE/Hygro] Vector (E365A, promega). NUGC-3_P53-Luc single clonal cells were cultured in 37° C. cell incubator before use. NUGC-3-P53-Luc cells were collected and washed twice with PBS to remove phenol red and then resuspended in medium to a proper concentration. Tested compound dilutions were transferred into 384 well assay plates (PerkinElmer). A desired number of cells was seeded into the assay plate and cultured for 6 hours at 37° C. cell incubator. Britelite plus Luciferase Assay Reagent were added into each well and the luminescence value was recorded on Envision. The percent of activity value of compounds treated wells was normalized between high control and low control. Wells containing cells and Ref-1a (10 μM) sewved as high control, and wells containing cells and same percentage of DMSO sewved as low control. Activity value (%)=(Luminescence readoutCompound treated−Luminescence readoutLow control)/(Luminescence readoutHigh control−Luminescence readoutLow control)*100%. Then the data were analyzed either by fitting a 4-parameter logistic model or by Excel to calculate EC50 values and the EC50 was the concentration at 50% Activity on the curve.

For orientation: EC50 means the concentration giving half of the maximal effect. The IC50 is the midpoint of a concentration-inhibition curve. For `CNC(=O)c1ccc(NCC#Cc2sc3c(N[C@H]4CCN(C)C[C@H]4F)cccc3c2CC(F)(F)F)c(OC)c1` (racemic) [Example 41, 4-((3-(7-(((3R,4S)-3-fluoro-1-methylpiperidin-4-yl)amino)-3-(2,2,2-trifluoroethyl)benzo[b]thiophen-2-yl)prop-2-yn-1-yl)amino)-3-methoxy-N-methylbenzamide], the EC50 in assay [1] came to 0.057 µM; in assay [2] (Homo sapiens, NUGC-3), 0.6 µM. Moreover, the IC50 with NUGC3 (P53 Y220C) (Homo sapiens, NUGC-3, 144 h) worked out at 1.54 µM; in the assay on NUGC4 (P53 WT) (Homo sapiens, NUGC-4, 144 h), 6.14 µM.
In the case of `COc1cc(P(C)(C)=O)ccc1NCC#Cc1sc2c(NC3C(C)CN(C)CC3C)cccc2c1CC(F)(F)F` (stereo not shown) [Example 132, (3-methoxy-4-((3-(3-(2,2,2-trifluoroethyl)-7-(((E)-1,3,5-trimethylpiperidin-4-yl)amino)benzo[b]thiophen-2-yl)prop-2-yn-1-yl)amino)phenyl)dimethylphosphine oxide], the EC50 in assay [1] was determined as 0.059 µM; in assay [2], 0.26 µM. In addition, the half-inhibitory concentration (IC50) in the assay on NUGC3 (P53 Y220C) was determined as 0.82 µM; in the assay with NUGC4 (P53 WT), 3.08 µM.
Take `CCP(=O)(CC)c1ccc(NCC#Cc2sc3c(N[C@@H]4CCN(C)C[C@@H]4F)cccc3c2CC(F)(F)F)c(OCF)c1` (racemic) [Example 66, diethyl(4-((3-(7-(((Z)-3-fluoro-1-methylpiperidin-4-yl)amino)-3-(2,2,2-trifluoroethyl)benzo[b]thiophen-2-yl)prop-2-yn-1-yl)amino)-3-(fluoromethoxy)phenyl)phosphine oxide]: the EC50 in assay [1] was 0.06 µM; in assay [2] (Homo sapiens, NUGC-3), 0.12 µM. The IC50 was found to be 0.82 µM in the assay with NUGC3 (P53 Y220C) (Homo sapiens, NUGC-3, 144 h) and 10.3 µM with NUGC4 (P53 WT) (Homo sapiens, NUGC-4, 144 h).
The corresponding values for `COc1cc(P(C)(C)=O)ccc1NCC#Cc1sc2c(N[C@@H]3CCN(C4CCOC4)C[C@@H]3F)cccc2c1CC(F)(F)F` (stereo partly drawn) [Example 157, (4-((3-(7-(((3S,4R)-3-fluoro-1-(tetrahydrofuran-3-yl)piperidin-4-yl)amino)-3-(2,2,2-trifluoroethyl)benzo[b]thiophen-2-yl)prop-2-yn-1-yl)amino)-3-methoxyphenyl)dimethylphosphine oxide] are 0.068 µM, 0.11 µM, 0.53 µM and 4.84 µM.
For `CN1CC[C@@H](Nc2cccc3c(CC(F)(F)F)c(C#CCNC(=O)c4ccn(C(C)(C)C)c4)sc23)[C@@H](F)C1` (racemic) [Example 130, 1-tert-butyl-N-[3-[7-[((Z)-3-fluoro-1-methyl-4-piperidyl)amino]-3-(2,2,2-trifluoroethyl)benzothiophen-2-yl]prop-2-ynyl]pyrrole-3-carboxamide], in that order: 0.117 µM, 0.36 µM, 3.55 µM and 6.85 µM.
For `COc1cc(P(C)(C)=O)ccc1NCC#Cc1sc2c(NC3CC4CN(C)CC4C3)cccc2c1CC(F)(F)F` (stereo not shown) [Example 182], in that order: 0.058 µM, 0.48 µM, 2.03 µM and 3.74 µM.
`CN1CC[C@@H](Nc2cccc3c(CC(F)(F)F)c(C#CCNc4ccc(P(C)(C)=O)cc4C(=O)NC4CC4)sc23)[C@@H](F)C1` [Example 215, N-cyclopropyl-5-(dimethylphosphoryl)-2-((3-(7-(((3S,4R)-3-fluoro-1-methylpiperidin-4-yl)amino)-3-(2,2,2-trifluoroethyl)benzo[b]thiophen-2-yl)prop-2-yn-1-yl)amino)benzamide]: the EC50 worked out at 0.042 µM in assay [1] and 0.14 µM in assay [2] (Homo sapiens, NUGC-3). Moreover, the IC50 with NUGC3 (P53 Y220C) (Homo sapiens, NUGC-3, 144 h) was determined as 0.37 µM; in the assay with NUGC4 (P53 WT) (Homo sapiens, NUGC-4, 144 h), 37.3 µM.
The corresponding values for `COc1cc(P(C)(C)=O)ccc1NCC#Cc1sc2c(N[C@@H]3CCN(C4CCCCOC4)C[C@@H]3F)cccc2c1CC(F)(F)F` (stereo partly drawn) [Example 185, (4-((3-(7-(((3S,4R)-3-fluoro-1-(oxepan-3-yl)piperidin-4-yl)amino)-3-(2,2,2-trifluoroethyl)benzo[b]thiophen-2-yl)prop-2-yn-1-yl)amino)-3-methoxyphenyl)dimethylphosphine oxide] are 0.054 µM, 0.11 µM, 0.88 µM and 2.79 µM.
In the case of `COc1cc([S@@](C)(=N)=O)ccc1NCC#Cc1sc2c(N[C@@H]3CCN(C)C[C@@H]3F)cccc2c1CC(F)(F)F` [Example 226, (S)-(4-((3-(7-(((3S,4R)-3-fluoro-1-methylpiperidin-4-yl)amino)-3-(2,2,2-trifluoroethyl)benzo[b]thiophen-2-yl)prop-2-yn-1-yl)amino)-3-methoxyphenyl)(imino)(methyl)-16-sulfanone], the concentration for a half-maximal effect (EC50) in assay [1] was 0.039 µM; in assay [2], 0.05 µM. The half-maximal inhibitory concentration (IC50) was 0.32 µM with NUGC3 (P53 Y220C) and 19.4 µM with NUGC4 (P53 WT).
As to `[2H]C([2H])([2H])Oc1cc(P(C)(C)=O)ccc1NCC#Cc1sc2c(N[C@@H]3CCN(C)C[C@@H]3F)cccc2c1CC(F)(F)F` [Example 174, (4-((3-(7-(((3S,4R)-3-fluoro-1-methylpiperidin-4-yl)amino)-3-(2,2,2-trifluoroethyl)benzo[b]thiophen-2-yl)prop-2-yn-1-yl)amino)-3-(methoxy-d3)phenyl)dimethylphosphine oxide], the EC50 in assay [1] turned out to be 0.015 µM; in assay [2] (Homo sapiens, NUGC-3), 0.06 µM. Moreover, the half-maximal inhibitory concentration (IC50) in the assay with NUGC3 (P53 Y220C) (Homo sapiens, NUGC-3, 144 h) came to 0.35 µM; in the assay on NUGC4 (P53 WT) (Homo sapiens, NUGC-4, 144 h) it was 5.93 µM.
On to `CN1CC[C@@H](Nc2cccc3c(CC(F)(F)F)c(C#CCNc4ccc(P(C)(C)=O)cc4-c4cnco4)sc23)[C@@H](F)C1` [Example 214, (4-((3-(7-(((3S,4R)-3-fluoro-1-methylpiperidin-4-yl)amino)-3-(2,2,2-trifluoroethyl)benzo[b]thiophen-2-yl)prop-2-yn-1-yl)amino)-3-(oxazol-5-yl)phenyl)dimethylphosphine oxide], for which the EC50 in assay [1] was determined as 0.038 µM; in assay [2] (Homo sapiens, NUGC-3, 6 h), 0.1 µM. The IC50 came out at 0.38 µM in the assay with NUGC3 (P53 Y220C) (Homo sapiens, NUGC-3, 144 h) and 13.9 µM in the assay with NUGC4 (P53 WT) (Homo sapiens, NUGC-4, 144 h).
For the molecule `COc1cc(S(C)(=O)=O)ccc1NCC#Cc1cc2c(N[C@@H]3CCN(C)C[C@@H]3F)cccc2n1CC(F)(F)F` [Ref-1a, N-((3S,4R)-3-fluoro-1-methylpiperidin-4-yl)-2-(3-((2-methoxy-4-(methylsulfonyl)phenyl)amino)prop-1-yn-1-yl)-1-(2,2,2-trifluoroethyl)-1H-indol-4-amine, reference compound], the EC50 in assay [1] is 0.048 µM; in assay [2] (Homo sapiens, NUGC-3), 0.05 µM. The IC50 with NUGC3 (P53 Y220C) (Homo sapiens, NUGC-3, 144 h) came out at 0.54 µM; in the assay on NUGC4 (P53 WT) (Homo sapiens, NUGC-4, 144 h), 11 µM.
Regarding `COCC(O)CN1CC[C@@H](Nc2cccc3c(CC(F)(F)F)c(C#CCNc4ccc(P(C)(C)=O)cc4OC)sc23)[C@@H](F)C1` (relative stereo) [Example 97, 1-[(Z)-4-[[2-[3-(4-dimethylphosphoryl-2-methoxy-anilino)prop-1-ynyl]-3-(2,2,2-trifluoroethyl)benzothiophen-7-yl]amino]-3-fluoro-1-piperidyl]-3-methoxy-propan-2-ol], the EC50 in assay [1] is 0.071 µM; in assay [2] (Homo sapiens, NUGC-3) it was 0.15 µM. Moreover, the IC50 in the assay on NUGC3 (P53 Y220C) (Homo sapiens, NUGC-3, 144 h) worked out at 0.96 µM; with NUGC4 (P53 WT) (Homo sapiens, NUGC-4, 144 h), 5.72 µM.
